Assay results taken from ChEMBL document CHEMBL3045546, “Synthesis and antimicrobial screening of 4-thiazolidinone and 2-azetidinone derivatives of piperazine” (2013).
≈ marks a conversion by molar mass, not a printed value.

Tests used:
Assay type in all cases: functional
[1] = system: Bacillus cereus; experiment: Antimicrobial activity against Bacillus cereus ATCC 11778 assessed as growth inhibition by broth dilution method
[2] = system: Staphylococcus epidermidis; experiment: Antimicrobial activity against Staphylococcus epidermidis ATCC 12228 assessed as growth inhibition by broth dilution method
[3] = system: Staphylococcus aureus; experiment: Antimicrobial activity against Staphylococcus aureus ATCC 25923 assessed as growth inhibition by broth dilution method
[4] = system: Staphylococcus hominis; experiment: Antimicrobial activity against Staphylococcus hominis ATCC 27844 assessed as growth inhibition by broth dilution method
[5] = system: Aspergillus fumigatus; experiment: Antimicrobial activity against Aspergillus fumigatus assessed as growth inhibition by broth dilution method
[6] = system: Pseudomonas aeruginosa; experiment: Antimicrobial activity against Pseudomonas aeruginosa ATCC 10145 assessed as growth inhibition by broth dilution method
[7] = system: Proteus mirabilis; experiment: Antimicrobial activity against Proteus mirabilis ATCC 49565 assessed as growth inhibition by broth dilution method
[8] = system: Bacillus subtilis; experiment: Antimicrobial activity against Bacillus subtilis ATCC 6633 assessed as growth inhibition by broth dilution method
[9] = system: Klebsiella pneumoniae; experiment: Antimicrobial activity against Klebsiella pneumoniae ATCC 13883 assessed as growth inhibition by broth dilution method
[10] = system: Microsporum canis; experiment: Antimicrobial activity against Arthroderma otae ATCC 11622 assessed as growth inhibition by broth dilution method
[11] = system: Micrococcus luteus; experiment: Antimicrobial activity against Micrococcus luteus ATCC 4698 assessed as growth inhibition by broth dilution method
[12] = system: Candida albicans; experiment: Antimicrobial activity against Candida albicans ATCC 10231 assessed as growth inhibition by broth dilution method
[13] = system: Rhizoctonia solani; experiment: Antimicrobial activity against Rhizoctonia solani ATCC 76131 assessed as growth inhibition by broth dilution method
[14] = system: Salmonella typhi; experiment: Antimicrobial activity against Salmonella enterica subsp. enterica serovar Typhi ATCC 19430 assessed as growth inhibition by broth dilution method
[15] = system: Proteus vulgaris; experiment: Antimicrobial activity against Proteus vulgaris ATCC 13315 assessed as growth inhibition by broth dilution method
[16] = system: Trichoderma viride; experiment: Antimicrobial activity against Hypocrea rufa ATCC 52440 assessed as growth inhibition by broth dilution method
[17] = system: Bacillus pumilus; experiment: Antimicrobial activity against Bacillus pumilus ATCC 14884 assessed as growth inhibition by broth dilution method
[18] = system: Alternaria alternata; experiment: Antimicrobial activity against Alternaria alternata ATCC 66868 assessed as growth inhibition by broth dilution method
[19] = system: Aspergillus awamori; experiment: Antimicrobial activity against Aspergillus awamori ATCC 22342 assessed as growth inhibition by broth dilution method
[20] = system: Trichophyton longifusum; experiment: Antimicrobial activity against Trichophyton longifusum ATCC 22397 assessed as growth inhibition by broth dilution method
[21] = system: Aspergillus flavus; experiment: Antimicrobial activity against Aspergillus flavus ATCC 15517 assessed as growth inhibition by broth dilution method
[22] = system: Escherichia coli; experiment: Antimicrobial activity against Escherichia coli ATCC 25922 assessed as growth inhibition by broth dilution method
[23] = system: Aspergillus niger; experiment: Antimicrobial activity against Aspergillus niger ATCC 9142 assessed as growth inhibition by broth dilution method
[24] = system: Fusarium solani; experiment: Antimicrobial activity against Fusarium solani ATCC 38136 assessed as growth inhibition by broth dilution method

Row | SMILES | MIC [1] [µg/mL] | MIC [2] [µg/mL] | MIC [3] [µg/mL] | MIC [4] [µg/mL] | MIC [5] [µg/mL] | MIC [6] [µg/mL] | MIC [7] [µg/mL] | MIC [8] [µg/mL] | MIC [9] [µg/mL] | MIC [10] [µg/mL] | MIC [11] [µg/mL] | MIC [12] [µg/mL] | MIC [13] [µg/mL] | MIC [14] [µg/mL] | MIC [15] [µg/mL] | MIC [16] [µg/mL] | MIC [17] [µg/mL] | MIC [18] [µg/mL] | MIC [19] [µg/mL] | MIC [20] [µg/mL] | further results
1 | O=C1CSC(c2ccco2)N1CCN1CCNCC1 (centres undefined) | 150 (≈ 533 µM) | 300 (≈ 1070 µM) | 150 (≈ 533 µM) | 75 (≈ 267 µM) | 150 (≈ 533 µM) | 75 (≈ 267 µM) | 150 (≈ 533 µM) | 75 (≈ 267 µM) | 150 (≈ 533 µM) | 300 (≈ 1070 µM) | 75 (≈ 267 µM) | 300 (≈ 1070 µM) | 150 (≈ 533 µM) | 75 (≈ 267 µM) | 150 (≈ 533 µM) | 150 (≈ 533 µM) | 150 (≈ 533 µM) | 300 (≈ 1070 µM) | 150 (≈ 533 µM) | 300 (≈ 1070 µM) | MIC [21]: 150 µg/mL (≈ 533 µM); MIC [22]: 75 µg/mL (≈ 267 µM); MIC [23]: 300 µg/mL (≈ 1070 µM); MIC [24]: 300 µg/mL (≈ 1070 µM)
2 | COc1ccc(C2C(Cl)C(=O)N2CCN2CCN(C(=O)CCl)CC2)cc1O (centres undefined) | 9.37 (≈ 22.5 µM) | 9.37 (≈ 22.5 µM) | 9.37 (≈ 22.5 µM) | 9.37 (≈ 22.5 µM) | 18.8 (≈ 45 µM) | 9.37 (≈ 22.5 µM) | 9.37 (≈ 22.5 µM) | 4.68 (≈ 11.2 µM) | 9.37 (≈ 22.5 µM) | 18.8 (≈ 45 µM) | 4.68 (≈ 11.2 µM) | 18.8 (≈ 45 µM) | 18.8 (≈ 45 µM) | 4.68 (≈ 11.2 µM) | 9.37 (≈ 22.5 µM) | 18.8 (≈ 45 µM) | 9.37 (≈ 22.5 µM) | 9.73 (≈ 23.4 µM) | 18.8 (≈ 45 µM) | 9.73 (≈ 23.4 µM) | MIC [21]: 18.8 µg/mL (≈ 45 µM); MIC [22]: 9.37 µg/mL (≈ 22.5 µM); MIC [23]: 18.8 µg/mL (≈ 45 µM); MIC [24]: 18.8 µg/mL (≈ 45 µM)
3 | O=C(CCl)N1CCN(CCN2C(=O)C(Cl)C2c2ccccc2O)CC1 (centres undefined) | 150 (≈ 388 µM) | 150 (≈ 388 µM) | 75 (≈ 194 µM) | 150 (≈ 388 µM) | 300 (≈ 777 µM) | 75 (≈ 194 µM) | 75 (≈ 194 µM) | 150 (≈ 388 µM) | 150 (≈ 388 µM) | 300 (≈ 777 µM) | 75 (≈ 194 µM) | 300 (≈ 777 µM) | 300 (≈ 777 µM) | 75 (≈ 194 µM) | 75 (≈ 194 µM) | 300 (≈ 777 µM) | 75 (≈ 194 µM) | 300 (≈ 777 µM) | 300 (≈ 777 µM) | 300 (≈ 777 µM) | MIC [21]: 300 µg/mL (≈ 777 µM); MIC [22]: 150 µg/mL (≈ 388 µM); MIC [23]: 300 µg/mL (≈ 777 µM); MIC [24]: 300 µg/mL (≈ 777 µM)
4 | O=C(CCl)N1CCN(CCN2C(=O)C(Cl)C2c2cccc(O)c2)CC1 (centres undefined) | 37.5 (≈ 97.1 µM) | 18.8 (≈ 48.5 µM) | 37.5 (≈ 97.1 µM) | 37.5 (≈ 97.1 µM) | 75 (≈ 194 µM) | 37.5 (≈ 97.1 µM) | 37.5 (≈ 97.1 µM) | 18.8 (≈ 48.5 µM) | 37.5 (≈ 97.1 µM) | 75 (≈ 194 µM) | 18.8 (≈ 48.5 µM) | 37.5 (≈ 97.1 µM) | 37.5 (≈ 97.1 µM) | 37.5 (≈ 97.1 µM) | 18.8 (≈ 48.5 µM) | 37.5 (≈ 97.1 µM) | 37.5 (≈ 97.1 µM) | 37.5 (≈ 97.1 µM) | 75 (≈ 194 µM) | 75 (≈ 194 µM) | MIC [21]: 75 µg/mL (≈ 194 µM); MIC [22]: 18.8 µg/mL (≈ 48.5 µM); MIC [23]: 37.5 µg/mL (≈ 97.1 µM); MIC [24]: 37.5 µg/mL (≈ 97.1 µM)
5 | O=C(CCl)N1CCN(CCN2C(=O)C(Cl)C2c2ccc(O)cc2)CC1 (centres undefined) | 9.37 (≈ 24.3 µM) | 9.37 (≈ 24.3 µM) | 9.37 (≈ 24.3 µM) | 9.37 (≈ 24.3 µM) | 9.37 (≈ 24.3 µM) | 9.37 (≈ 24.3 µM) | 9.37 (≈ 24.3 µM) | 9.37 (≈ 24.3 µM) | 9.37 (≈ 24.3 µM) | 9.37 (≈ 24.3 µM) | 9.37 (≈ 24.3 µM) | 18.8 (≈ 48.5 µM) | 9.37 (≈ 24.3 µM) | 9.37 (≈ 24.3 µM) | 4.68 (≈ 12.1 µM) | 9.37 (≈ 24.3 µM) | 9.37 (≈ 24.3 µM) | 18.8 (≈ 48.5 µM) | 9.37 (≈ 24.3 µM) | 18.8 (≈ 48.5 µM) | MIC [21]: 9.37 µg/mL (≈ 24.3 µM); MIC [22]: 4.68 µg/mL (≈ 12.1 µM); MIC [23]: 9.37 µg/mL (≈ 24.3 µM); MIC [24]: 18.8 µg/mL (≈ 48.5 µM)
6 | O=C(CCl)N1CCN(CCN2C(=O)C(Cl)C2c2ccccc2)CC1 (centres undefined) | 18.8 (≈ 50.6 µM) | 37.5 (≈ 101 µM) | 18.8 (≈ 50.6 µM) | 37.5 (≈ 101 µM) | 75 (≈ 203 µM) | 18.8 (≈ 50.6 µM) | 18.8 (≈ 50.6 µM) | 75 (≈ 203 µM) | 37.5 (≈ 101 µM) | 75 (≈ 203 µM) | 18.8 (≈ 50.6 µM) | 75 (≈ 203 µM) | 75 (≈ 203 µM) | 37.5 (≈ 101 µM) | 37.5 (≈ 101 µM) | 75 (≈ 203 µM) | 18.8 (≈ 50.6 µM) | 37.5 (≈ 101 µM) | 75 (≈ 203 µM) | 37.5 (≈ 101 µM) | MIC [21]: 75 µg/mL (≈ 203 µM); MIC [22]: 37.5 µg/mL (≈ 101 µM); MIC [23]: 75 µg/mL (≈ 203 µM); MIC [24]: 75 µg/mL (≈ 203 µM)
